From patent US20100040710A1, “Stimulation of the synthesis and of the activity of an isoform of lysyl oxidase-like LOXL for stimulating the formation of elastic fibers” (BASF Beauty Care Solutions France SAS, priority 2003, published 2010)
Marks after values point to notes of the source that are not given here.

Experiments:
Format in all cases: cell-based, human
elastin (Eln) mRNA = assay: Screening of active principles by qualitative RT-PCR: elastin mRNA expression in fibroblasts; details: actives at 1% (v/v), 24 hours, fibroblasts of the abdomen of mature age adult (donor), mRNA vs actin and negative control
Description: (§1) The active principles were tested at 1% (v/v) on fibroblasts of normal human skin (originating from the foreskin of the infant or originating from the adult). The culture was carried out, e.g. in a monolayer on 24-well culture plates, in a defined medium without serum (Fibroblast Basal Medium). The cells were sown, e.g. at 40,000 per cm^2. At the confluence, the cells are placed in contact with the actives advantageously for 24 hours. In parallel, a non-treated control (medium alone) and three positive controls (TGF-β at 1 ng/ml, IL-1α at […] and Phytokine® (Coletica, Lyons, France) at 2% (v/v)) are advantageously carried out, e.g. on the same culture plate.
(§2) The TGF-β at 1 ng/ml and the IL-1α at 50 pg/ml were tested beforehand and the stimulation of the synthesis of elastin mRNA induced by these two cytokines at these concentrations was verified by an analysis of the mRNAs, e.g. by quantitative RT-PCR (×10 for TGF-β and x6 for IL-1 alpha). After the time of placing the actives in contact with the cells, e.g. 24 hours, the media are removed and the cells are preserved e.g. by dry freezing at −80° C. after a rinsing in phosphate buffer pH 7.4. The total RNAs are extracted e.g. with the aid of an extraction kit of 96 wells on silica columns and were determined on a 96-well spectrophotometer at 260 nm (purity indicator: protein determination at 280 nm). The RNAs are diluted e.g. to 5 ng/μl. The qualitative RT-PCR in 1 step is carried out e.g. on 50 ng of initial RNA on a 96-well plate, on the genes of actin, elastin, of LOX and of LOXL. The specific primers of each gene are used e.g. at 0.5 μM: […]
(§3) The amplification parameters were advantageously the following 48° C., 30 min; 94° C., 2 min; (94° C., 30 seconds; 60° C., 30 seconds; 68° C., 30 seconds) 28 cycles for actin, 30 cycles for LOXL, 32 cycles for LOX, or 34 cycles for elastin; 68° C., 10 min; 14° C., infinity. […] The photographs of the gels were analyzed by image analysis and quantification of the intensity of the bands (Phoretix1D, France). […]

LOXL mRNA [1] = assay: Screening of active principles by qualitative RT-PCR: LOXL mRNA expression in fibroblasts; details: actives at 1% (v/v), 24 hours, fibroblasts of the abdomen of mature age adult (donor), mRNA vs actin and negative control
Description: as §1, §2, §3

LOX mRNA [2] = assay: Screening of active principles by qualitative RT-PCR: LOX mRNA expression in fibroblasts; details: actives at 1% (v/v), 24 hours, fibroblasts of the abdomen of mature age adult (donor), mRNA vs actin and negative control
Description: as §1, §2, §3

elastin mRNA [3] = assay: Positive controls: stimulation of elastin mRNA synthesis by quantitative RT-PCR; details: 1 ng/ml, fold (×)
Description: as §1
as §2, with “nm).” for “nm). The RNAs are diluted e.g. to 5 ng/μl. The qualitative RT-PCR in 1 step is carried out e.g. on 50 ng of initial RNA on a 96-well plate, on the genes of actin, elastin, of LOX and of LOXL. The specific primers of each gene are used e.g. at 0.5 μM:”

LOXL mRNA [4] = assay: Real time RT-PCR effectiveness study: LOXL mRNA in adult fibroblasts; details: 24 hours, adult abdomen fibroblasts (donor)
Description: (§4) […] The culture was carried out e.g. in monolayer in 24-well plates, in a defined medium without serum (Fibroblast Basal Medium). The cells are sown e.g. at 40,000 per cm^2. After the time of placing the actives in contact with the cells (24 hours), the media were removed and the cells were preserved e.g. by dry freezing at −80° C. after a rinsing with phosphate buffer at pH 7.4. At the end of experimentation, the content of mRNA of elastin, of LOXL and of actin is evaluated by an mRNA analysis technique, e.g. by real time RT-PCR. For this, the couples of primers enabling the amplification of specific fragments of these genes are those described above (Example 10).
(§5) After extraction e.g. with the aid of an extraction kit in 96-wells on silica columns and determination on a 96-well spectrophotometer at 260 nm, the RNAs are diluted e.g. to 5 ng/μl. The RT-PCR reactions ([…]) were carried out by quantitative real time RT-PCR with the aid of the “Opticon” system (MJ Research). Advantageously, the reaction mixture (50 μl) introduced into the wells was the following, for each sample: • 10 μl of RNA at a concentration of 5 ng/μl, • The specific primers of the various labels sought after, • Reaction mixture (Qiagen−25 μl 2×QuantiTect SYBR Green RT-PCR master mix containing 5 mM MgCl2+0.5 μl QuantITect RT mix), the label SYBR Green I inserting in the DNA double strands during the elongation step. The RT-PCR Conditions were Advantageously the Following: Reverse Transcription: 30 minutes at 50° C., then 15 minutes at 95° C., PCR reactions: [15 seconds at 94° C., 30 seconds at 60° C. and 30 seconds at 72° C.], 50 cycles.
(§6) The absence of contamination and the purity of the amplified products were verified e.g. via the fusion curves of the amplified PCR products. The products presenting a double peak or an abnormal fusion temperature were eliminated.
(§7) The incorporation of fluorescence in the amplified DNA was evaluated continuously during the PCR cycles. This system enabled obtaining curves of fluorescence measurement as a function of the number of PCR cycles and thus enabled evaluating a relative amount of amplified DNA.
(§8) In order to take account of the cell population present, all the results were compared to the <> signal, which was used as housekeeping gene. According to the experimentation, the threshold of measurement of the C(T) (=Cycle Threshold) was fixed for T between 0.05 and 0.01, and then an arbitrary measurement unit is calculated for each gene according to the formula:
(§9) Sgene<=10^7×(1/2)^C(T)gene<>
(§10) C (T)gene <> signifying the number of cycles necessary to attain the cycle threshold of 0.01-0.05 of the gene <>.
(§11) The values of the genes of interest were compared to the <> signal by calculation of the ratio: […]

LOX mRNA [5] = assay: Real time RT-PCR effectiveness study: LOX mRNA in adult fibroblasts; details: 24 hours, adult abdomen fibroblasts (donor)
elastin mRNA [6] = assay: Real time RT-PCR effectiveness study: elastin mRNA in adult fibroblasts; details: 24 hours, adult abdomen fibroblasts (donor)
Description: as §4, §5, §6, §7, §8, §9, §10, §11

ethyl hexenoate
Eln Control multiplied by: (elastin (Eln) mRNA): 1.5
LOXL Control multiplied by: (LOXL mRNA [1]): 2.33
LOX Control multiplied by: (LOX mRNA [2]): 3.09

TGF-β
stimulation of the synthesis of elastin mRNA (elastin mRNA [3]): 10

CCCC(=O)OC [methyl butyrate]
Eln Control multiplied by: (elastin (Eln) mRNA): 1.43
LOXL Control multiplied by: (LOXL mRNA [1]): 3.24
LOX Control multiplied by: (LOX mRNA [2]): 5.08
LOXL Control multiplied by: (LOXL mRNA [4]; active at 0.01%): 0.89
LOXL Control multiplied by: (LOXL mRNA [4]; active at 0.1%): 1.56
LOXL Control multiplied by: (LOXL mRNA [4]; active at 1%): 2.10*
LOXL Control multiplied by: (LOXL mRNA [4]; active at 5%): 0.91
LOX Control multiplied by: (LOX mRNA [5]; active at 0.01%): 1.04
LOX Control multiplied by: (LOX mRNA [5]; active at 0.1%): 1.76*
LOX Control multiplied by: (LOX mRNA [5]; active at 1%): 2.17*
LOX Control multiplied by: (LOX mRNA [5]; active at 5%): 0.91
El Control multiplied by: (elastin mRNA [6]; active at 0.01%): 0.92
El Control multiplied by: (elastin mRNA [6]; active at 0.1%): 0.96
El Control multiplied by: (elastin mRNA [6]; active at 1%): 1.25
El Control multiplied by: (elastin mRNA [6]; active at 5%): 1.70*

ethyl decadienoate
Eln Control multiplied by: (elastin (Eln) mRNA): 2.04
LOXL Control multiplied by: (LOXL mRNA [1]): 2.32
LOX Control multiplied by: (LOX mRNA [2]): 3.64
